{
  "source": "patent US20230085307A1",
  "about": "“PYRIDAZINONE COMPOUND AND HERBICIDE” (NISSAN CHEMICAL CORPORATION, priority 2019, published 2023)",
  "key": {"[1]": {"tested_on": "Italian ryegrass", "experiment": "Test Example 5: herbicidal effect by foliage application, plastic box (Table 20, symbol K)", "format": "in vivo, Italian ryegrass (Lolium multiflorum)", "details": "foliage application, three weeks after application", "summary_of_the_method": "(§1)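 Sow seeds spot-wise in sterilized diluvial soil; cover with ~1.5 cm soil. Grow 14 days in greenhouse, 25° C. to 30° C. Spray foliage with emulsion diluted to predetermined amount. Rate effect after 3 weeks.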"}, "[2]": {"tested_on": "barnyard grass", "experiment": "Test Example 5: herbicidal effect by foliage application, plastic box (Table 20, symbol H)", "format": "in vivo, barnyard grass (Echinochloa crus-galli)", "details": "foliage application, three weeks after application", "summary_of_the_method": "as §1"}, "[3]": {"tested_on": "wild oat", "experiment": "Test Example 5: herbicidal effect by foliage application, plastic box (Table 20, symbol I)", "format": "in vivo, wild oat (Avena fatua)", "details": "foliage application, three weeks after application", "summary_of_the_method": "as §1"}, "[4]": {"tested_on": "persian speedwell", "experiment": "Test Example 5: herbicidal effect by foliage application, plastic box (Table 20, symbol R)", "format": "in vivo, Persian speedwell (Veronica persica)", "details": "foliage application, three weeks after application", "summary_of_the_method": "as §1"}, "[5]": {"tested_on": "redroot pigweed", "experiment": "Test Example 5: herbicidal effect by foliage application, plastic box (Table 20, symbol N)", "format": "in vivo, redroot pigweed (Amaranthus retroflexus)", "details": "foliage application, three weeks after application", "summary_of_the_method": "as §1"}, "[6]": {"tested_on": "oval-leafed pondweed", "experiment": "Test Example 1: herbicidal activity, application before weed generation under submerged conditions (Table 16, symbol C)", "format": "in vivo, oval-leafed pondweed (Monochoria vaginalis)", "summary_of_the_method": "(§2)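 Submerged Wagner pots (alluvial soil, 4 cm water) sown with weed seeds and planted with 2.5-leaf rice seedlings; emulsifiable concentrate diluted in water applied to water surface on sowing day. Held in greenhouse at 25-30 °C; injury scored 0-5 by herbicidal rate after three weeks.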"}, "[7]": {"tested_on": "green foxtail", "experiment": "Test Example 5: herbicidal effect by foliage application, plastic box (Table 20, symbol G)", "format": "in vivo, green foxtail (Setaria viridis)", "details": "foliage application, three weeks after application", "summary_of_the_method": "as §1"}, "[8]": {"tested_on": "late watergrass", "experiment": "Test Example 1: herbicidal activity, application before weed generation under submerged conditions (Table 16, symbol A)", "format": "in vivo, late watergrass (Echinochloa oryzicola)", "summary_of_the_method": "as §2"}, "[9]": {"tested_on": "chickweed", "experiment": "Test Example 5: herbicidal effect by foliage application, plastic box (Table 20, symbol P)", "format": "in vivo, common chickweed (Stellaria media)", "details": "foliage application, three weeks after application", "summary_of_the_method": "as §1"}, "[10]": {"tested_on": "lambsquarters", "experiment": "Test Example 5: herbicidal effect by foliage application, plastic box (Table 20, symbol O)", "format": "in vivo, lambsquarters (Chenopodium album)", "details": "foliage application, three weeks after application", "summary_of_the_method": "as §1"}, "[11]": {"tested_on": "rice flat sedge", "experiment": "Test Example 3: herbicidal effect by foliage application, Wagner pot (Table 18, symbol E)", "format": "in vivo, rice flat sedge (Cyperus iria)", "summary_of_the_method": "(§3)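 Plants were sown in alluvial soil held under 0.1–0.5 cm standing water and grown 14 days in a greenhouse at 25–30 °C. An emulsifiable formulation, water-diluted to the set dose, was then sprayed onto the foliage, and effects were scored three weeks later using previously defined criteria.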"}, "[12]": {"tested_on": "windgrass", "experiment": "Test Example 5: herbicidal effect by foliage application, plastic box (Table 20, symbol L)", "format": "in vivo, windgrass (Apera spica-venti)", "details": "foliage application, three weeks after application", "summary_of_the_method": "as §1"}, "[13]": {"tested_on": "Chinese sprangletop", "experiment": "Test Example 3: herbicidal effect by foliage application, Wagner pot (Table 18, symbol D)", "format": "in vivo, chinese sprangletop (Leptochloa chinensis)", "summary_of_the_method": "as §3"}, "[14]": {"tested_on": "velvetleaf", "experiment": "Test Example 5: herbicidal effect by foliage application, plastic box (Table 20, symbol M)", "format": "in vivo, velvetleaf (Abutilon theophrasti)", "details": "foliage application, three weeks after application", "summary_of_the_method": "as §1"}, "[15]": {"tested_on": "false cleavers", "experiment": "Test Example 5: herbicidal effect by foliage application, plastic box (Table 20, symbol Q)", "format": "in vivo, false cleavers (Galium spurium)", "details": "foliage application, three weeks after application", "summary_of_the_method": "as §1"}, "[16]": {"tested_on": "southern crabgrass", "experiment": "Test Example 5: herbicidal effect by foliage application, plastic box (Table 20, symbol F)", "format": "in vivo, southern crabgrass (Digitaria ciliaris)", "details": "foliage application, three weeks after application", "summary_of_the_method": "as §1"}, "[17]": {"tested_on": "blackgrass", "experiment": "Test Example 5: herbicidal effect by foliage application, plastic box (Table 20, symbol J)", "format": "in vivo, blackgrass (Alopecurus myosuroides)", "details": "foliage application, three weeks after application", "summary_of_the_method": "as §1"}, "[18]": {"tested_on": "Japanese bulrush", "experiment": "Test Example 1: herbicidal activity, application before weed generation under submerged conditions (Table 16, symbol B)", "format": "in vivo, Japanese bulrush (Schoenoplectus juncoides)", "summary_of_the_method": "as §2"}, "[19]": {"tested_on": "barnyard grass", "experiment": "Test Example 3: herbicidal effect by foliage application, Wagner pot (Table 18, symbol H)", "format": "in vivo, barnyard grass (Echinochloa crus-galli)", "summary_of_the_method": "as §3"}, "[20]": {"details": "amount of applied herbicide 49 g/ha"}, "[21]": {"details": "amount of applied herbicide 45 g/ha"}},
  "data": [
    {"smiles": "Cc1nn(C)c(=O)c(-c2c(-c3ccccc3OCC3CC3(F)F)sc3ccccc23)c1O", "note": "(centres unmarked) [1-120]", "values": [
      {"measurement": "K: Italian ryegrass, herbicidal effect", "setting": "[1]; AAH 320 g/ha", "value": "0 (Herbicidal rate of 5% or less (almost no effect))"},
      {"measurement": "H: barnyard grass, herbicidal effect", "setting": "[2]; AAH 320 g/ha", "value": "0 (Herbicidal rate of 5% or less (almost no effect))"},
      {"measurement": "I: wild oat, herbicidal effect", "setting": "[3]; AAH 320 g/ha", "value": "0 (Herbicidal rate of 5% or less (almost no effect))"},
      {"measurement": "R: persian speedwell, herbicidal effect", "setting": "[4]; AAH 320 g/ha", "value": "5 (Herbicidal rate of 90% or more (almost completely withered))"},
      {"measurement": "N: redroot pigweed, herbicidal effect", "setting": "[5]; AAH 320 g/ha", "value": "0 (Herbicidal rate of 5% or less (almost no effect))"},
      {"measurement": "Herbicidal effect on C: oval-leafed pondweed (grade 0-5)", "setting": "[6]; 320 g/ha applied herbicide", "value": "0 (Herbicidal rate of 5% or less (almost no effect))"},
      {"measurement": "G: green foxtail, herbicidal effect", "setting": "[7]; AAH 320 g/ha", "value": "0 (Herbicidal rate of 5% or less (almost no effect))"},
      {"measurement": "Herbicidal effect on A: late watergrass (grade 0-5)", "setting": "[8]; 320 g/ha applied herbicide", "value": "3 (Herbicidal rate of 40% or more and less than 70%)"},
      {"measurement": "P: chickweed, herbicidal effect", "setting": "[9]; AAH 320 g/ha", "value": "4 (Herbicidal rate of 70% or more and less than 90%)"},
      {"measurement": "O: lambsquarters, herbicidal effect", "setting": "[10]; AAH 320 g/ha", "value": "0 (Herbicidal rate of 5% or less (almost no effect))"},
      {"measurement": "herbicidal effect on E (rice flat sedge), rating 0-5", "setting": "[11]; 320 g/ha", "value": "2 (Herbicidal rate of 20% or more and less than 40%)"},
      {"measurement": "L: windgrass, herbicidal effect", "setting": "[12]; AAH 320 g/ha", "value": "0 (Herbicidal rate of 5% or less (almost no effect))"},
      {"measurement": "herbicidal effect on D (Chinese sprangletop), rating 0-5", "setting": "[13]; 320 g/ha", "value": "0 (Herbicidal rate of 5% or less (almost no effect))"},
      {"measurement": "M: velvetleaf, herbicidal effect", "setting": "[14]; AAH 320 g/ha", "value": "0 (Herbicidal rate of 5% or less (almost no effect))"},
      {"measurement": "Q: false cleavers, herbicidal effect", "setting": "[15]; AAH 320 g/ha", "value": "3 (Herbicidal rate of 40% or more and less than 70%)"},
      {"measurement": "F: southern crabgrass, herbicidal effect", "setting": "[16]; AAH 320 g/ha", "value": "0 (Herbicidal rate of 5% or less (almost no effect))"},
      {"measurement": "J: blackgrass, herbicidal effect", "setting": "[17]; AAH 320 g/ha", "value": "2 (Herbicidal rate of 20% or more and less than 40%)"},
      {"measurement": "Herbicidal effect on B: Japanese bulrush (grade 0-5)", "setting": "[18]; 320 g/ha applied herbicide", "value": "0 (Herbicidal rate of 5% or less (almost no effect))"},
      {"measurement": "herbicidal effect on H (barnyard grass), rating 0-5", "setting": "[19]; 320 g/ha", "value": "3 (Herbicidal rate of 40% or more and less than 70%)"}
    ]},
    {"smiles": "CCCC(=O)Oc1c(C)nn(C)c(=O)c1-c1c(-c2ccc(C(C)=NOC)cc2)sc2cc(F)ccc12", "note": "[3-018]", "values": [
      {"measurement": "K: Italian ryegrass, herbicidal effect grade", "setting": "[1]; 45 g/ha", "value": "0 (Herbicidal rate of 5% or less (almost no effect))"},
      {"measurement": "H: barnyard grass, herbicidal effect grade", "setting": "[2]; 45 g/ha", "value": "0 (Herbicidal rate of 5% or less (almost no effect))"},
      {"measurement": "I: wild oat, herbicidal effect grade", "setting": "[3]; 45 g/ha", "value": "0 (Herbicidal rate of 5% or less (almost no effect))"},
      {"measurement": "R: persian speedwell, herbicidal effect grade", "setting": "[4]; 45 g/ha", "value": "3 (Herbicidal rate of 40% or more and less than 70%)"},
      {"measurement": "N: redroot pigweed, herbicidal effect grade", "setting": "[5]; 45 g/ha", "value": "3 (Herbicidal rate of 40% or more and less than 70%)"},
      {"measurement": "Herbicidal effect, C: oval-leafed pondweed", "setting": "[6]; [20]", "value": "0 (Herbicidal rate of 5% or less (almost no effect))"},
      {"measurement": "G: green foxtail, herbicidal effect grade", "setting": "[7]; 45 g/ha", "value": "0 (Herbicidal rate of 5% or less (almost no effect))"},
      {"measurement": "Herbicidal effect, A: late watergrass", "setting": "[8]; [20]", "value": "3 (Herbicidal rate of 40% or more and less than 70%)"},
      {"measurement": "P: chickweed, herbicidal effect grade", "setting": "[9]; 45 g/ha", "value": "1 (Herbicidal rate of 5% or more and less than 20%)"},
      {"measurement": "O: lambsquarters, herbicidal effect grade", "setting": "[10]; 45 g/ha", "value": "1 (Herbicidal rate of 5% or more and less than 20%)"},
      {"measurement": "herbicidal effect on E: rice flat sedge", "setting": "[11]; [21]", "value": "2 (Herbicidal rate of 20% or more and less than 40%)"},
      {"measurement": "L: windgrass, herbicidal effect grade", "setting": "[12]; 45 g/ha", "value": "0 (Herbicidal rate of 5% or less (almost no effect))"},
      {"measurement": "herbicidal effect on D: Chinese sprangletop", "setting": "[13]; [21]", "value": "0 (Herbicidal rate of 5% or less (almost no effect))"},
      {"measurement": "M: velvetleaf, herbicidal effect grade", "setting": "[14]; 45 g/ha", "value": "0 (Herbicidal rate of 5% or less (almost no effect))"},
      {"measurement": "Q: false cleavers, herbicidal effect grade", "setting": "[15]; 45 g/ha", "value": "0 (Herbicidal rate of 5% or less (almost no effect))"},
      {"measurement": "F: southern crabgrass, herbicidal effect grade", "setting": "[16]; 45 g/ha", "value": "0 (Herbicidal rate of 5% or less (almost no effect))"},
      {"measurement": "J: blackgrass, herbicidal effect grade", "setting": "[17]; 45 g/ha", "value": "0 (Herbicidal rate of 5% or less (almost no effect))"},
      {"measurement": "Herbicidal effect, B: Japanese bulrush", "setting": "[18]; [20]", "value": "2 (Herbicidal rate of 20% or more and less than 40%)"},
      {"measurement": "herbicidal effect on H: barnyard grass", "setting": "[19]; [21]", "value": "3 (Herbicidal rate of 40% or more and less than 70%)"}
    ]}
  ]
}
